We go through one molecule from ChEMBL document CHEMBL4340549, “Design, synthesis and biological evaluation of isochroman-4-one hybrids bearing piperazine moiety as antihypertensive agent candidates” (Bioorg Med Chem, 2019).

In data set [1] the test system is Rattus norvegicus. Briefly: Effect on heart rate in spontaneously hypertensive rat assessed as heart rate level at 80 mg/kg, po measured after 1 hr by tail-cuff method (reference value: 415.25 +/- 14.7 bpm). It counts as ADME, organism-based. To be noted: in vivo.
The test system of data set [2] is Rattus norvegicus. As to the kind of experiment: Effect on heart rate in spontaneously hypertensive rat assessed as heart rate level at 80 mg/kg, po measured after 6 hrs by tail-cuff method (reference value: 411.12 +/- 19.1 bpm). It counts as ADME, organism-based. To be noted: in vivo.
Data set [3] relates to Rattus norvegicus. Briefly: Antihypertensive activity in spontaneously hypertensive rat assessed as diastolic arterial pressure at 80 mg/kg, po measured after 4 hrs by tail-cuff method (reference value: 136.12 +/- 5.3 mmHg). It counts as functional.
In data set [4] the test system is Rattus norvegicus. Briefly: Antihypertensive activity in spontaneously hypertensive rat assessed as mean arterial pressure at 80 mg/kg, po measured after 1 hr by tail-cuff method (reference value: 160 +/- 9.97 mmHg). It counts as functional.
Data set [5] has as its system Rattus norvegicus. Briefly: Antihypertensive activity in spontaneously hypertensive rat assessed as diastolic arterial pressure at 80 mg/kg, po measured after 6 hrs by tail-cuff method (reference value: 137.54 +/- 9.2 mmHg). It counts as functional.
The species named for data set [6] is Rattus norvegicus. Briefly: Ratio of pA2 for alpha-1b adrenergic receptor in SPF rat spleen to pA2 for alpha-1D adrenergic receptor in SPF rat vas thoracic aorta.
In data set [7] the test system is Rattus norvegicus. As to the kind of experiment: Antihypertensive activity in spontaneously hypertensive rat assessed as systolic arterial pressure at 80 mg/kg, po measured after 6 hrs by tail-cuff method (reference value: 179.36 +/- 18.33 mmHg). It counts as functional.
Data set [8] has as its system Rattus norvegicus. Briefly: Antihypertensive activity in spontaneously hypertensive rat assessed as systolic arterial pressure at 80 mg/kg, po measured after 4 hrs by tail-cuff method (reference value: 178.66 +/- 17.18 mmHg). It counts as functional.
Data set [9] relates to Rattus norvegicus. As to the kind of experiment: Effect on heart rate in spontaneously hypertensive rat assessed as heart rate level at 80 mg/kg, po measured after 0 hrs by tail-cuff method (reference value: 413.17 +/- 10.5 bpm). Particulars: in vivo. It counts as ADME, organism-based.
Data set [10] deals with Rattus norvegicus. As to the kind of experiment: Antihypertensive activity in spontaneously hypertensive rat assessed as systolic arterial pressure at 80 mg/kg, po measured after 1 hr by tail-cuff method (reference value: 185.35 +/- 10.30 mmHg). It counts as functional.
In data set [11] the test system is Rattus norvegicus. Briefly: Antihypertensive activity in spontaneously hypertensive rat assessed as diastolic arterial pressure at 80 mg/kg, po measured after 0 hrs by tail-cuff method (reference value: 149.50 +/- 5.4 mmHg). It counts as functional.
Data set [12] concerns Rattus norvegicus. As to the kind of experiment: Antihypertensive activity in spontaneously hypertensive rat assessed as systolic arterial pressure at 80 mg/kg, po measured after 8 hrs by tail-cuff method (reference value: 179.42 +/- 13.70 mmHg). It counts as functional.
For data set [13], the system named is Rattus norvegicus. As to the kind of experiment: Antihypertensive activity in spontaneously hypertensive rat assessed as mean arterial pressure at 80 mg/kg, po measured after 2 hrs by tail-cuff method (reference value: 163 +/- 8.1 mmHg). It counts as functional.
For data set [14], the system named is Rattus norvegicus. As to the kind of experiment: Effect on heart rate in spontaneously hypertensive rat assessed as heart rate level at 80 mg/kg, po measured after 8 hrs by tail-cuff method (reference value: 412.77 +/- 11.3 bpm). It counts as ADME, organism-based. To be noted: in vivo.
In data set [15] the test system is Rattus norvegicus. As to the kind of experiment: Antihypertensive activity in spontaneously hypertensive rat assessed as systolic arterial pressure at 80 mg/kg, po measured after 0 hrs by tail-cuff method (reference value: 186.10 +/- 4.55 mmHg). It counts as functional.
In data set [16] the test system is Rattus norvegicus. Briefly: Effect on heart rate in spontaneously hypertensive rat assessed as heart rate level at 80 mg/kg, po measured after 2 hrs by tail-cuff method (reference value: 413.2 +/- 15.2 bpm). It counts as ADME, organism-based. To be noted: in vivo.
The target of data set [17] is T1, Alpha-1D adrenergic receptor (Rattus norvegicus, UniProt P23944).
T1 sequence (P23944 whole entry): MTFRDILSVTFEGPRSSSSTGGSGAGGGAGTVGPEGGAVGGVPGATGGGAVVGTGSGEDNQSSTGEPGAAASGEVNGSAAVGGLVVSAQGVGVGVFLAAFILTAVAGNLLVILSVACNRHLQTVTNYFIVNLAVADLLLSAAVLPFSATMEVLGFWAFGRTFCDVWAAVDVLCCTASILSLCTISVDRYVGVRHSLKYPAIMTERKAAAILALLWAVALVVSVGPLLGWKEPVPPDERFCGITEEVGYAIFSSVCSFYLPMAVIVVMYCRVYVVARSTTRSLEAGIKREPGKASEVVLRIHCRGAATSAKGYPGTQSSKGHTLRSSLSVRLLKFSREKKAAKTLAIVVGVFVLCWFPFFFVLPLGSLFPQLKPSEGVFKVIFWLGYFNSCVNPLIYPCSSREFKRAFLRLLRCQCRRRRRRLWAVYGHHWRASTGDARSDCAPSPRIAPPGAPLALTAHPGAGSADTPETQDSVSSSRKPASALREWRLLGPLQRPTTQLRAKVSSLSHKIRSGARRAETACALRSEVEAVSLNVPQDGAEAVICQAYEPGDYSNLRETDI
As to the kind of experiment: Antagonist activity at alpha-1D adrenergic receptor in SPF rat vas thoracic aorta assessed as inhibition of noradrenaline-induced contractions. Particulars: read-out: pA2 (converted).

In data set [18] the test system is Rattus norvegicus. Briefly: Antihypertensive activity in spontaneously hypertensive rat assessed as diastolic arterial pressure at 80 mg/kg, po measured after 2 hrs by tail-cuff method (reference value: 149.90 +/- 6 mmHg). It counts as functional.
Another data set deals with Thoracic aorta. Briefly: Vasodilatory activity in Sprague-Dawley rat thoracic aorta assessed as inhibition of noradrenaline-induced contractions at 10 uM relative to untreated control. It counts as functional.
Data set [19] has as its system Rattus norvegicus. As to the kind of experiment: Antihypertensive activity in spontaneously hypertensive rat assessed as mean arterial pressure at 80 mg/kg, po measured after 4 hrs by tail-cuff method (reference value: 150.30 +/- 9.26 mmHg). It counts as functional.
Data set [20] deals with Rattus norvegicus. As to the kind of experiment: Antihypertensive activity in spontaneously hypertensive rat assessed as diastolic arterial pressure at 80 mg/kg, po measured after 8 hrs by tail-cuff method (reference value: 140.61 +/- 10.3 mmHg). It counts as functional.
Data set [21] addresses T2, Alpha-1A adrenergic receptor (Rattus norvegicus, UniProt P43140).
T2 sequence (P43140 whole entry): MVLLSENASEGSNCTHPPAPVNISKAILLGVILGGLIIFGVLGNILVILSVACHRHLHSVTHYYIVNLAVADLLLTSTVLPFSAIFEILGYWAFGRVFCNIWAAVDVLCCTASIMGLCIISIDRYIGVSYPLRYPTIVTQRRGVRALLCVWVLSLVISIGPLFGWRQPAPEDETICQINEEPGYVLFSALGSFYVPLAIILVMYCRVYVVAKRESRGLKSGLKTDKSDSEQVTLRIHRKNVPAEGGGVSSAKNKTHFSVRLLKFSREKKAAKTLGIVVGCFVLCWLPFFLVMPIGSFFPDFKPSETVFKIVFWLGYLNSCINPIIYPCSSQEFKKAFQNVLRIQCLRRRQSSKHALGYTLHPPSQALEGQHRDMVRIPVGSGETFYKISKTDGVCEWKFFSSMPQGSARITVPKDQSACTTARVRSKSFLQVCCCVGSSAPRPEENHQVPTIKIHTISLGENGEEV
Briefly: Antagonist activity at alpha-1a adrenergic receptor in SPF rat prostatic vas deferens assessed as inhibition of noradrenaline-induced contractions. To be noted: read-out: pA2 (converted).

The test system of data set [22] is Rattus norvegicus. Briefly: Antihypertensive activity in spontaneously hypertensive rat assessed as mean arterial pressure at 80 mg/kg, po measured after 8 hrs by tail-cuff method (reference value: 153.55 +/- 11.43 mmHg). It counts as functional.

What is called inhibition is the drop in the measured response relative to a control, in per cent. On to `COc1cc2c(cc1OCC(O)CN1CCN(C(=O)C3CCCO3)CC1)C(=O)C(C)OC2` (stereo not drawn), for which the Activity in the data set with Rattus norvegicus [1] was 409.3 bpm; with Rattus norvegicus [2], 411.01 bpm; in the data set with Rattus norvegicus [3], 120.54 mmHg; with Rattus norvegicus [4], 152.5 mmHg; in the data set with Rattus norvegicus [5] it was 132.51 mmHg; in the data set on Rattus norvegicus [7] it was 157.46 mmHg. Also, the Activity in the data set on Rattus norvegicus [8] is reported as 140.29 mmHg; with Rattus norvegicus [9] it was 415.33 bpm; with Rattus norvegicus [10], 169.21 mmHg; with Rattus norvegicus [11], 156.23 mmHg; with Rattus norvegicus [12], 170.38 mmHg; in the data set with Rattus norvegicus [13] it was 138.17 mmHg. Further, the Activity stood at 413.16 bpm in the data set on Rattus norvegicus [14]; 187.64 mmHg in the data set with Rattus norvegicus [15]; 408.14 bpm in the data set with Rattus norvegicus [16]; 131.86 mmHg in the data set on Rattus norvegicus [18]; 127.12 mmHg with Rattus norvegicus [19]; 141.89 mmHg in the data set with Rattus norvegicus [20]. In addition, the Activity with Rattus norvegicus [22] came to 151.39 mmHg. Moreover, the Ratio in the data set listed under Rattus norvegicus [6] amounted to 5.6. For the same molecule, the Kb in [17] is 0.189 to 0.195 µM; in data set [21], 0.224 µM. Also, the inhibition at 10 µM in the data set on Thoracic aorta is 41.6%.
